From ChEMBL document CHEMBL5352451, “Novel rhodanine based inhibitors of aldose reductase of non-acidic nature with p-hydroxybenzylidene functional group” (Eur J Med Chem, 2023)

Assays:
[1] = molecular target: Aldo-keto reductase family 1 member B1 (Homo sapiens, UniProt P15121); assay: Inhibition of ALR2 (unknown origin)
[2] = Inhibition of rat eye lens ALR2 using DL-glyceraldehyde by measuring NADPH consumption by spectrophotometric analysis; type: tissue-based
[3] = molecular target: Aldo-keto reductase family 1 member A1 (Rattus norvegicus, UniProt P51635); assay: Inhibition of rat kidney ALR1 using D-glucuronate by measuring NADPH consumption by spectrophotometric analysis; type: tissue-based
[4] = species: Rattus norvegicus; assay: Selectivity index, ratio of IC50 for rat kidney ALR1 to IC50 for rat eye lens ALR2

Sequence of Aldo-keto reductase family 1 member A1 (P51635 whole entry, looked up): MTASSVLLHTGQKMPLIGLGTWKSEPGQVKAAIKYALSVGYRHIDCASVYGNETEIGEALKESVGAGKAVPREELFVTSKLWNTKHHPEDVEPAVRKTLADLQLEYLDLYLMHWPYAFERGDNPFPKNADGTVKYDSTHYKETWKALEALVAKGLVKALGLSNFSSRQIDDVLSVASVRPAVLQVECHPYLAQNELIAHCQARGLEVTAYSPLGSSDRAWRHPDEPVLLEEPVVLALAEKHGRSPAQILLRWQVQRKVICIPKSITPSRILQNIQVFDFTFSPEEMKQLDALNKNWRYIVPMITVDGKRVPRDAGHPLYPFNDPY

| IC50 [1] [µM] | IC50 [2] [µM] | pIC50 [2] | IC50 [3] [µM] | Ratio IC50 [4] | Structure (SMILES) |
| --- | --- | --- | --- | --- | --- |
| 6.18 | – | – | – | – | COC(=O)CN1C(=O)S/C(=C\c2ccc(O)cc2)C1=O |
| 3 | – | – | – | – | O=C1S/C(=C\c2ccc(O)cc2)C(=O)N1CC(=O)C(F)(F)F |
| 1.3 | – | – | – | – | COc1ccc2nc(/N=C3\NC(=O)/C(=C/c4ccc(O)cc4)S3)sc2c1 |
| – | 2.15 | 5.67 | > 25 | > 11 | COc1ccc(/C=N/N2C(=O)/C(=C/c3ccc(O)cc3)SC2=S)cc1 |
| – | 0.149 | 6.83 | 1.76 | 12 | O=C1/C(=C/c2ccc(O)cc2)SC(=S)N1/N=C/c1ccccc1Cl |
| – | 0.027 | 7.57 | 0.228 | 8 | O=C1/C(=C/c2ccc(O)cc2)SC(=S)N1/N=C/c1ccc(F)cc1 |
| – | 0.892 | 6.05 | 21.1 | 24 | O=C1/C(=C/c2ccc(O)cc2)SC(=S)N1/N=C/c1ccccc1 |
| 0.95 | – | – | – | – | O=C(CN1C(=O)S/C(=C\c2ccc(O)cc2)C1=O)Nc1ccccc1O |
| – | 0.25 | 6.6 | – | – | CC(/C=C1\SC(=S)N(CC(=O)O)C1=O)=C\c1ccccc1 [EPALRESTAT] |
| 1.79 | – | – | – | – | O=C(CN1C(=O)S/C(=C\c2ccc(O)cc2)C1=O)NO |
| – | 0.022 | 7.66 | 0.116 | 5 | O=C1/C(=C/c2ccc(O)cc2)SC(=S)N1/N=C/c1ccc(O)cc1 |
| – | 0.053 | 7.28 | 0.635 | 12 | Cc1ccccc1/C=N/N1C(=O)/C(=C/c2ccc(O)cc2)SC1=S |
